# Results published in BindingDB's records for doi:10.1021/ml400382p (Glaxosmithkline, 2013).
# Test: Inhibition of RIP1 in human U937 cells assessed as prevention of TNFalpha/zVAD.fmk-induced necrotic cell death preincubated for 30 to 60 mins followed by TNF-alpha induction measured after overnight incubation by Cell Titer-Glo luminescence assay
row,Compound,IC50
1,Nc1nccc2c(-c3ccc(NC(=O)Nc4cccc(C(F)(F)F)c4)cc3)cccc12,630 nM
2,Nc1nccc2c(-c3ccc(NC(=O)Nc4ccc(F)c(C(F)(F)F)c4)cc3)cccc12,2500 nM
3,Nc1nccc2c(-c3ccc(NC(=O)Nc4cc(F)cc(C(F)(F)F)c4)cc3)cccc12,2500 nM
4,Nc1nccc2c(-c3ccc(NC(=O)Nc4cc(C(F)(F)F)ccc4F)cc3)cccc12,630 nM
5,CC(C)(C)c1cc(NC(=O)Nc2ccc(-c3coc4ncnc(N)c34)cc2)no1,200 nM
6,Nc1ncnc2occ(-c3ccc(NC(=O)Nc4cccc(Cl)c4)cc3)c12,7900 nM
7,CCc1cccc(NC(=O)Nc2ccc(-c3coc4ncnc(N)c34)cc2)c1,250 nM
8,Nc1ncnc2occ(-c3ccc(NC(=O)Nc4ccc(Cl)c(C(F)(F)F)c4)cc3)c12,1300 nM
9,Nc1ncnc2occ(-c3ccc(NC(=O)Nc4cccc(C(F)(F)F)c4F)cc3)c12,10000 nM
10,Nc1ncnc2occ(-c3ccc(NC(=O)Nc4cc(F)cc(C(F)(F)F)c4)cc3)c12,5000 nM
11,Nc1ncnc2occ(-c3ccc(NC(=O)Nc4ccc(F)c(C(F)(F)F)c4)cc3)c12,1300 nM
12,O=C(Nc1cccc(-c2c[nH]c3ncc(-c4cn[nH]c4)cc23)c1)Nc1cc(C(F)(F)F)ccc1F,63 nM
13,Nc1ccc(-c2cnc3[nH]cc(-c4cccc(NC(=O)Nc5cc(C(F)(F)F)ccc5F)c4)c3c2)cc1,16 nM
14,CS(=O)(=O)c1cccc(-c2cnc3[nH]cc(-c4cccc(NC(=O)Nc5cc(C(F)(F)F)ccc5F)c4)c3c2)c1,50 nM
15,NC(=O)c1cccc(-c2cnc3[nH]cc(-c4cccc(NC(=O)Nc5cc(C(F)(F)F)ccc5F)c4)c3c2)c1,63 nM
16,O=C(Nc1cccc(-c2c[nH]c3ncc(-c4cccnc4)cc23)c1)Nc1cc(C(F)(F)F)ccc1F,6.3 nM
17,CCS(=O)(=O)c1ccc(-c2cnc3[nH]cc(-c4cccc(NC(=O)Nc5cc(C(F)(F)F)ccc5F)c4)c3c2)cc1,25 nM
18,O=C(Nc1cccc(-c2c[nH]c3ncc(-c4ccccc4)cc23)c1)NC1CCCC1,7900 nM
19,O=C(Nc1cccc(-c2c[nH]c3ncc(-c4ccccc4)cc23)c1)Nc1cc(C(F)(F)F)ccc1F,160 nM
20,CC(=O)c1cccc(NC(=O)Nc2cccc(-c3c[nH]c4ncc(-c5ccccc5)cc34)c2)c1,320 nM
21,COc1cccc(NC(=O)Nc2cccc(-c3c[nH]c4ncc(-c5ccccc5)cc34)c2)c1,400 nM
22,O=C(Nc1cccc(-c2c[nH]c3ncc(-c4ccccc4)cc23)c1)Nc1cccc(C(F)(F)F)c1,79 nM
23,O=C(Nc1cccc(-c2c[nH]c3ncc(-c4ccccc4)cc23)c1)Nc1cccc([N+](=O)[O-])c1,320 nM
24,Nc1nccc2c(-c3ccc(NC(=O)Nc4cc(C(F)(F)F)ccc4Cl)cc3)cccc12,> 10000 nM
25,Nc1nccc2c(-c3ccc(NC(=O)Nc4ccc(Cl)c(C(F)(F)F)c4)cc3)cccc12,2000 nM
26,"O=C(Nc1ccccc1)Nc1cccc(-c2c[nH]c3ncc(-c4ccccc4)cc23)c1 [1-phenyl-3-(3-(5-phenyl-1H-pyrrolo[2,3-b]pyridin-3-yl)phenyl)urea]",600 nM
27,"Nc1ncnc2occ(-c3ccc(NC(=O)Nc4cc(C(F)(F)F)cc(C(F)(F)F)c4)cc3)c12 [3-(4-{4-aminofuro[2,3-d]pyrimidin-5-yl}phenyl)-1-[3,5-bis(trifluoromethyl)phenyl]urea]",7900 nM
28,"Nc1ncnc2occ(-c3ccc(NC(=O)Nc4cccc(C(F)(F)F)c4)cc3)c12 [3-(4-{4-aminofuro[2,3-d]pyrimidin-5-yl}phenyl)-1-[3-(trifluoromethyl)phenyl]urea]",1000 nM
29,"Nc1ncnc2occ(-c3ccc(NC(=O)Nc4ccc5ccccc5c4)cc3)c12 [3-(4-{4-aminofuro[2,3-d]pyrimidin-5-yl}phenyl)-1-naphthalen-2-ylurea]",790 nM
